# Values quoted from earlier work as cited in patent US20060122261A1, “[METHOD OF PREPARING LABDANE DITERPENE COMPOSITION, PREFERABLY ISOFORSKOLIN AND DEACETYLFORSKOLIN FROM FORSKOLIN EXTRACT AND THEIR USE FOR PROMOTING LEAN BODY MASS AND OTHER APPLICATIONS]” (priority 2003, published 2006).
# Tests used:
# [1] = Rupp, de Souza, Dohadwalla 1985
# [2] = test system: adenylate cyclase; conditions: Rupp, de Souza, Dohadwalla 1985
Compound,"Effectiveness as hypotensive, anti-hypertensive, positive inotropic relative to Forskolin [1]",Effectiveness as adenylate cyclase activator relative to Forskolin [2]
C=C[C@@]1(C)CC(=O)[C@@]2(O)[C@](C)(O1)[C@@H](O)[C@@H](OC(C)=O)C1C(C)(C)CC[C@H](O)[C@@]12C (stereo partly shown) [6-acetyl-7-deacetylforskolin],equally effective as Forskolin,equally effective as Forskolin
C=C[C@@]1(C)CC(=O)[C@]2(O)[C@@]3(C)[C@@H](O)CCC(C)(C)[C@@H]3[C@H](O)[C@H](O)[C@@]2(C)O1 [7-deacetylforskolin],equally effective as Forskolin,equally effective as Forskolin
